# Results from PubChem BioAssay AID1963982 (Molecular Pharmacology Branch, DTP, NCI, 2024).
# Test system: 313798-341-R-J2-PDC spheroids, viability
# Experiment: Anticancer human tumor 313798-341-R-J2-PDC patient-derived cervical squamous cell carcinoma cell line growth inhibition [PI3K]
# Details: spheroids with HUVEC and MSC; for IC50: curve of first compound; for viability, T/C: stronger effect = lower value
# Method in brief: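 Multi-cell spheroids combine tumor cells with HUVEC and human MSCs, treated with targeted agents alone or with inavolisib, alpelisib, duvelisib or copanlisib. Concentrations fall in half-log steps from at or near clinical Cmax, or from 10 microM where Cmax is unknown; viability read-out.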
# [1] = second compound 0.00316 µM, first compound 0.0316 µM
# [2] = second compound 0.00316 µM, first compound 0.1 µM
# [3] = second compound 0.00316 µM, first compound 0.316 µM
# [4] = second compound 0.00316 µM, first compound 1 µM
# [5] = second compound 0.00316 µM, first compound 3.16 µM
# [6] = second compound 0.00316 µM, first compound 10 µM
# [7] = second compound 0.01 µM, first compound 0.0316 µM
# [8] = second compound 0.01 µM, first compound 0.1 µM
# [9] = second compound 0.01 µM, first compound 0.316 µM
# [10] = second compound 0.01 µM, first compound 1 µM
# [11] = second compound 0.01 µM, first compound 3.16 µM
# [12] = second compound 0.01 µM, first compound 10 µM
# [13] = second compound 0.0316 µM, first compound 0.0316 µM
# [14] = second compound 0.0316 µM, first compound 0.1 µM
# [15] = second compound 0.0316 µM, first compound 0.316 µM
# [16] = second compound 0.0316 µM, first compound 1 µM
# [17] = second compound 0.0316 µM, first compound 3.16 µM
# [18] = second compound 0.0316 µM, first compound 10 µM
# [19] = second compound 0.1 µM, first compound 0.0316 µM
# [20] = second compound 0.1 µM, first compound 0.1 µM
# [21] = second compound 0.1 µM, first compound 0.316 µM
# [22] = second compound 0.1 µM, first compound 1 µM
# [23] = second compound 0.1 µM, first compound 3.16 µM
# [24] = second compound 0.1 µM, first compound 10 µM
# [25] = second compound 0.316 µM, first compound 0.0316 µM
# [26] = second compound 0.316 µM, first compound 0.1 µM
# [27] = second compound 0.316 µM, first compound 0.316 µM
# [28] = second compound 0.316 µM, first compound 1 µM
# [29] = second compound 0.316 µM, first compound 3.16 µM
# [30] = second compound 0.316 µM, first compound 10 µM
# [31] = second compound 1 µM, first compound 0.0316 µM
# [32] = second compound 1 µM, first compound 0.1 µM
# [33] = second compound 1 µM, first compound 0.316 µM
# [34] = second compound 1 µM, first compound 1 µM
# [35] = second compound 1 µM, first compound 3.16 µM
# [36] = second compound 1 µM, first compound 10 µM
# 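Note: spheroids exposed to compounds for seven days.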
# 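Throughout, for viability, T/C: 100% = DMSO vehicle control viability.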
smiles,measurement,setting,value
CC(C)NCC(C(=O)N1CCN(c2ncnc3c2C(C)CC3O)CC1)c1ccc(Cl)cc1 (stereo not drawn) + COc1c(OCCCN2CCOCC2)ccc2c3n(c(=NC(=O)c4cnc(N)nc4)nc12)CCN3,IC50,second compound 0.00316 µM,2420 nM
same,IC50,second compound 0.01 µM,1210 nM
same,IC50,second compound 0.0316 µM,1620 nM
same,IC50,second compound 0.1 µM,< 31.6 nM
same,IC50,second compound 0.316 µM,< 31.6 nM
same,IC50,second compound 1 µM,< 31.6 nM
same,"viability, T/C",[1],97.3%
same,"viability, T/C",[2],99%
same,"viability, T/C",[3],83%
same,"viability, T/C",[4],64.3%
same,"viability, T/C",[5],46.9%
same,"viability, T/C",[6],33%
same,"viability, T/C",[7],85.9%
same,"viability, T/C",[8],97.1%
same,"viability, T/C",[9],81.1%
same,"viability, T/C",[10],52%
same,"viability, T/C",[11],39.2%
same,"viability, T/C",[12],29.8%
same,"viability, T/C",[13],74.8%
same,"viability, T/C",[14],73.6%
same,"viability, T/C",[15],59.9%
same,"viability, T/C",[16],63.2%
same,"viability, T/C",[17],33%
same,"viability, T/C",[18],26.1%
same,"viability, T/C",[19],42.6%
same,"viability, T/C",[20],38.6%
same,"viability, T/C",[21],36.9%
same,"viability, T/C",[22],34%
same,"viability, T/C",[23],23.9%
same,"viability, T/C",[24],18.6%
same,"viability, T/C",[25],15.2%
same,"viability, T/C",[26],18.4%
same,"viability, T/C",[27],15.9%
same,"viability, T/C",[28],17.6%
same,"viability, T/C",[29],16.3%
same,"viability, T/C",[30],8.87%
same,"viability, T/C",[31],10.8%
same,"viability, T/C",[32],11.6%
same,"viability, T/C",[33],9.87%
same,"viability, T/C",[34],13.1%
same,"viability, T/C",[35],10.6%
same,"viability, T/C",[36],5.77%
CCN1CCN(Cc2ccc(Nc3ncc(F)c(-c4cc(F)c5nc(C)n(C(C)C)c5c4)n3)nc2)CC1 + COc1c(OCCCN2CCOCC2)ccc2c3n(c(=NC(=O)c4cnc(N)nc4)nc12)CCN3,IC50,second compound 0.00316 µM,> 1000 nM
same,IC50,second compound 0.01 µM,> 1000 nM
same,IC50,second compound 0.0316 µM,> 1000 nM
same,IC50,second compound 0.1 µM,< 3.16 nM
same,IC50,second compound 0.316 µM,< 3.16 nM
same,IC50,second compound 1 µM,< 3.16 nM
same,"viability, T/C","second compound 0.00316 µM, first compound 0.00316 µM",99.7%
same,"viability, T/C","second compound 0.00316 µM, first compound 0.01 µM",102%
same,"viability, T/C",[1],117%
same,"viability, T/C",[2],111%
same,"viability, T/C",[3],119%
same,"viability, T/C",[4],105%
same,"viability, T/C","second compound 0.01 µM, first compound 0.00316 µM",98.6%
same,"viability, T/C","second compound 0.01 µM, first compound 0.01 µM",91%
same,"viability, T/C",[7],99%
same,"viability, T/C",[8],125%
same,"viability, T/C",[9],113%
same,"viability, T/C",[10],102%
same,"viability, T/C","second compound 0.0316 µM, first compound 0.00316 µM",83.7%
same,"viability, T/C","second compound 0.0316 µM, first compound 0.01 µM",86.6%
same,"viability, T/C",[13],77.3%
same,"viability, T/C",[14],80.7%
same,"viability, T/C",[15],90%
same,"viability, T/C",[16],80%
same,"viability, T/C","second compound 0.1 µM, first compound 0.00316 µM",43.1%
same,"viability, T/C","second compound 0.1 µM, first compound 0.01 µM",44%
same,"viability, T/C",[19],43.4%
same,"viability, T/C",[20],36.6%
same,"viability, T/C",[21],41.9%
same,"viability, T/C",[22],45.9%
same,"viability, T/C","second compound 0.316 µM, first compound 0.00316 µM",13.6%
same,"viability, T/C","second compound 0.316 µM, first compound 0.01 µM",15.5%
same,"viability, T/C",[25],14.5%
same,"viability, T/C",[26],16.4%
same,"viability, T/C",[27],19.8%
same,"viability, T/C",[28],30%
same,"viability, T/C","second compound 1 µM, first compound 0.00316 µM",11.4%
same,"viability, T/C","second compound 1 µM, first compound 0.01 µM",14.3%
same,"viability, T/C",[31],13.9%
same,"viability, T/C",[32],11.7%
same,"viability, T/C",[33],18.3%
same,"viability, T/C",[34],27.4%
Cn1ncc(Cl)c1-c1cc(C(=O)NC(CN)Cc2cccc(F)c2)sc1Cl (stereo not drawn) + COc1c(OCCCN2CCOCC2)ccc2c3n(c(=NC(=O)c4cnc(N)nc4)nc12)CCN3,IC50,second compound 0.00316 µM,930 nM
same,IC50,second compound 0.01 µM,678 nM
same,IC50,second compound 0.0316 µM,280 nM
same,IC50,second compound 0.1 µM,< 31.6 nM
same,IC50,second compound 0.316 µM,< 31.6 nM
same,IC50,second compound 1 µM,< 31.6 nM
same,"viability, T/C",[1],107%
same,"viability, T/C",[2],84.7%
same,"viability, T/C",[3],71%
same,"viability, T/C",[4],46.7%
same,"viability, T/C",[5],36.6%
same,"viability, T/C",[6],35.5%
same,"viability, T/C",[7],100%
same,"viability, T/C",[8],99%
same,"viability, T/C",[9],69.2%
same,"viability, T/C",[10],41.6%
same,"viability, T/C",[11],30.8%
same,"viability, T/C",[12],36.8%
same,"viability, T/C",[13],99.3%
same,"viability, T/C",[14],61.9%
same,"viability, T/C",[15],53.7%
same,"viability, T/C",[16],36.4%
same,"viability, T/C",[17],25.2%
same,"viability, T/C",[18],25.5%
same,"viability, T/C",[19],49.4%
same,"viability, T/C",[20],43.5%
same,"viability, T/C",[21],41.4%
same,"viability, T/C",[22],27.1%
same,"viability, T/C",[23],20.2%
same,"viability, T/C",[24],15.4%
same,"viability, T/C",[25],17.5%
same,"viability, T/C",[26],18.1%
same,"viability, T/C",[27],15.2%
same,"viability, T/C",[28],16.6%
same,"viability, T/C",[29],13%
same,"viability, T/C",[30],5.97%
same,"viability, T/C",[31],12.7%
same,"viability, T/C",[32],12.4%
same,"viability, T/C",[33],13.6%
same,"viability, T/C",[34],12.3%
same,"viability, T/C",[35],9.74%
same,"viability, T/C",[36],3.3%
Cn1nccc1Nc1nccc(-c2ccn(C(CO)c3ccc(Cl)c(F)c3)c(=O)c2)n1 (stereo not drawn) + COc1c(OCCCN2CCOCC2)ccc2c3n(c(=NC(=O)c4cnc(N)nc4)nc12)CCN3,IC50,second compound 0.00316 µM,> 10000 nM
same,IC50,second compound 0.01 µM,> 10000 nM
same,IC50,second compound 0.0316 µM,> 10000 nM
same,IC50,second compound 0.1 µM,< 31.6 nM
same,IC50,second compound 0.316 µM,< 31.6 nM
same,IC50,second compound 1 µM,< 31.6 nM
same,"viability, T/C",[1],100%
same,"viability, T/C",[2],97%
same,"viability, T/C",[3],106%
same,"viability, T/C",[4],111%
same,"viability, T/C",[5],102%
same,"viability, T/C",[6],90.1%
same,"viability, T/C",[7],104%
same,"viability, T/C",[8],108%
same,"viability, T/C",[9],97.8%
same,"viability, T/C",[10],106%
same,"viability, T/C",[11],94%
same,"viability, T/C",[12],89.5%
same,"viability, T/C",[13],75.8%
same,"viability, T/C",[14],83.2%
same,"viability, T/C",[15],69.5%
same,"viability, T/C",[16],77.1%
same,"viability, T/C",[17],66.5%
same,"viability, T/C",[18],55.6%
same,"viability, T/C",[19],38.2%
same,"viability, T/C",[20],43.3%
same,"viability, T/C",[21],41%
same,"viability, T/C",[22],38.4%
same,"viability, T/C",[23],34.7%
same,"viability, T/C",[24],32%
same,"viability, T/C",[25],16.6%
same,"viability, T/C",[26],15.3%
same,"viability, T/C",[27],12.2%
same,"viability, T/C",[28],9.87%
same,"viability, T/C",[29],9.43%
same,"viability, T/C",[30],7.53%
same,"viability, T/C",[31],10.9%
same,"viability, T/C",[32],9.68%
same,"viability, T/C",[33],7.11%
same,"viability, T/C",[34],5.54%
same,"viability, T/C",[35],4.07%
same,"viability, T/C",[36],2.53%
